Assay results reported in patent publication US12193994B2, “Combination of a cell therapy and a gamma secretase inhibitor” (Juno Therapeutics, Inc., priority 2017, dated 2025).

Tests used:
MM1S cells = experiment: Serial restimulation of anti-BCMA CAR+ T cells with irradiated target cells: expansion and cytokines; assay type: cell-based, human; conditions: 0.001 μM and 1.0 μM
From the text: The ability of CAR T cells to expand ex vivo following repeated rounds of antigen stimulation can correlate with in vivo function and/or capacity of the cells to persist in in vivo (e.g., following administration and initial activation in response to encounter with antigen) (Zhao et al. (2015) Cancer Cell, 28:415-28). To assess the effect of the exemplary gamma secretase inhibitor on CAR-T cell activity after serial restimulation, anti-BCMA CAR+ T cells were generated as described above in Example 2, and irradiated BCMA-expressing target cells (MM1S cells) were added at an effector-to-target (E:T) ratio of 1:2 in the presence of LY3039478 at two different concentrations, either 0.001 μM (a concentration around the IC50) or a higher concentration of 1.0 μM (approximately 3 times Cmax), or with vehicle only control. The assay was performed on a composition of anti-BCMA CAR+ T cells generated from T cells derived from a healthy donor or from a donor with multiple myeloma. Every 3-4 days, CAR-expressing T cells were harvested, counted and re-plated at the initial seeding density with fresh media containing new irradiated target cells at the same E:T ratio in the presence or absence of the same concentration of LY3039478. A total of 3-5 rounds of stimulation were carried out during a 10-14 day culture period. Effects of the inhibitor on T cell function were assessed by monitoring the cell number (FIGS. 4A and 4B) or cytokine production in harvested supernatant (FIG. 5A and FIG. 5B) at each round of stimulation.
The production of cytokines by anti-BCMA CAR-T cells upon restimulation with antigen-expressing cells in the presence or absence of LY3039478 was assessed after the first round of re-plating at day 4. Culture supernatants were harvested 24 hours after re-plating, and IFN-gamma, IL-2 and TNF-alpha were measured from the culture supernatants.

OPM2 target cells = experiment: Similar study: concentration dependence of cytokine production by anti-BCMA CAR-T cells; assay type: cell-based; conditions: Homo sapiens, OPM-2; OPM2, one exemplary donor, IFN-gamma (FIG. 3E); read-out: increasing cytokine production by anti-BCMA CAR-T cells, IC50
Description: The production of cytokines by anti-BCMA CAR-T cells in the presence or absence of LY3039478 was assessed by monitoring cytokine levels in the supernatants of co-cultures of CAR-T cells with BCMA-expressing target cells. CAR-T cells generated as described in this Example above were cultured with either OPM2 or RPMI-8226 target cells in the absence of LY3039478 or in the presence of LY3039478 at concentrations of 0.1 nM, 1 nM, 10 nM, 100 nM, 1000 nM, 10000 nM or 100000 nM (the range covering the estimated human pharmacokinetic range is shown by the boxes in FIGS. 3A-3D). Culture supernatants were harvested after 24 hours, and IFNγ and IL-2 were measured from the culture supernatants.
A similar study was carried out to further assess the effects of different concentrations of LY3039478, including concentrations within the estimated Cmax/Cmin for the inhibitor, on the ability of anti-BCMA CAR-T cells generated as described in this Example 2 above to produce cytokines following co-culture with OPM2 target cells.

[1] = 24 hours after re-plating at day 4, both donors

C[C@H](NC(=O)CCC(F)(F)F)C(=O)N[C@@H]1C(=O)N(CCO)c2ncccc2-c2ccccc21 [LY3039478, 4,4,4-trifluoro-N-[(1S)-2-[[(7S)-5-(2-hydroxyethyl)-6-oxo-7H-pyrido[2,3-d][3]benzazepin-7-yl]amino]-1-methyl-2-oxo-ethyl]butanamide]
levels of IFN-gamma (MM1S cells; [1]): Increased levels
levels of IL-2 (MM1S cells; [1]): Increased levels
levels of TNF-alpha (MM1S cells; [1]): Increased levels
expansion of anti-BCMA CAR T cells (MM1S cells; E:T 1:2, 10-14 days, healthy and myeloma donor): increased expansion
detrimental effects on CAR-T cell function (MM1S cells; serial restimulation): did not exhibit any detrimental effects
IC50 (OPM2 target cells): 0.1 to 0.25 nM
